Source: patent US20180008665A1, “METHODS OF TREATING AND PREVENTING GOUT AND LEAD NEPHROPATHY” (priority 2016, published 2018)

Assays:
[1] = initiation during an acute gout attack, 57 men with crystal-proven gout; cited from earlier work
[2] = in vivo; cited from earlier work
[3] = Experimental: (§1) Each tablet contains 450 mg of pharmaceutical grade of GSH powder.
(§2) Seven (7) subjects with gout and hyperuricemia were examined. Specifically, these seven subjects were part of an open-label, twelve (12) weeks study in which they received 2700 mg daily (450 mg/tablet, 2 tablets/time, 3 times/day) of (2S)-2-Amino-4-{[(1R)-1-[(carboxymethyl)carbamoyl]-2-sulfanylethyl]carbamoyl}butanoic acid (hereinafter “CT° 1”).

[4] = remark: listed apart in the source
Experimental: as §1, §2
All of the subjects were classified as renally impaired (glomerular filtration rate <80 ml/minute). A serum creatinine test measures the level of creatinine in the blood and provides an estimate of glomerular filtration rate that indicates the excretory function of the kidney. If the kidney functions improperly, an increased level of creatinine may accumulate in the blood.

[5] = after 12 weeks of treatment versus first visit, 2700 mg daily oral

Oc1ncnc2[nH]ncc12 [allopurinol]
effect on daily pain, recurrent flares, or inflammatory markers [1]: no significant difference

COc1cc2c(c(OC)c1OC)-c1ccc(OC)c(=O)cc1[C@@H](NC(C)=O)CC2 [colchicine]
part of the dose excreted unchanged by the kidney [2]: 10-20%
removal by hemodialysis [2]: not removable by hemodialysis

N[C@@H](CCC(=O)N[C@@H](CS)C(=O)NCC(=O)O)C(=O)O [CT°I, (2S)-2-Amino-4-{[(1R)-1-[(carboxymethyl)carbamoyl]-2-sulfanylethyl]carbamoyl}butanoic acid]
mean blood lead level after 12 weeks of treatment ([3]; 7 subjects, 2700 mg daily oral, 12 weeks, first visit 49.90±8.41 μg/dL): 37.26 ± 6.29 µg/dL
mean serum urate after 12 weeks of treatment ([3]; 7 subjects, 2700 mg daily oral, 12 weeks, first visit 521.07±40.11 mg/L): 346.46 ± 21.17 mg/L
reduction of blood lead level [3, 5]: 25.33%
reduction of serum urate [3, 5]: 33.51%
significance of the reduction of blood lead level ([3]; p<0.05, 2700 mg daily oral): significantly different after 12 weeks of treatment
significance of the reduction of serum urate ([3]; p<0.05, 2700 mg daily oral): significantly different after 8 weeks of treatment
mean serum creatinine after 12 weeks of treatment ([4]; 7 subjects, 2700 mg daily oral, 12 weeks, first visit 135.29±6.89 μmol/L): 99.00 ± 4.45 µmol/L
reduction of serum creatinine [4, 5]: 26.82%
significance of the reduction of serum creatinine ([4]; p<0.05, 2700 mg daily oral): significantly different after 8 weeks of treatment
